Source: patent US20060252798A1, “Metal ion chelators and therapeutic use thereof” (priority 2003, published 2006)

Experiments:
[1] = Mouse weight loss and haematological indices in M109-bearing mice; assay type: in vivo; settings: Triapine 6 mg/kg; Mean ± SEM
Method: The tumour cells were passaged in CD2F1 mice by preparing a brei from the tumour and injecting it sc.^20 Dp44mT was dissolved in 30% (v/v) propylene glycol in saline and injected iv 4 days after tumour engraftment, twice daily for 5 days followed by a “rest period” of 2 days when the animal was not injected. On the twelfth day after tumour implantation, mice were sacrificed using methoxyfluorane and cardiac puncture performed. Blood counts and erythrocyte indices were measured using a Sysmex Blood Counter (Prince of Wales Hospital, Sydney, Australia). Mouse body weight changes during the treatment period were recorded. The tumours were weighed and fixed for histological examination. The experimental groups consisted of eight mice for the control and each treatment (Table 5).

[2] = system: MCF-7 breast cancer cells; test: MTT cellular proliferation assay, MCF-7; assay type: cell-based, human; settings: Homo sapiens, MCF7, 72 h, Table 3; 72 h, MTT; mean ± SD; read-out: IC50 MCF-7 breast cancer
Method: […] […] […] After this incubation, 0.01 mL of MTT was added to each well and the plates incubated for 2 h at 37° C. The cells were then solubilised by adding 0.1 mL of 10% SDS-50% isobutanol in 0.01 M HCl and the plates then read at 570 nm on a scanning multiwell spectrophotometer (Titertek Multiscan; Beckman Instruments Inc, California). MTT colour formation was directly proportional to the number of viable cells.
(§1) Dp2mT served as a negative control.
(§2) Dp2mT served as a negative control as the methyl group at the 2-position hinders Fe-chelation.

SK-Mel-28 melanoma cells = test: MTT cellular proliferation assay, SK-Mel-28; assay type: cell-based, human; settings: Homo sapiens, SK-MEL-28, 72 h, Table 3, mean ± SD
Method: The final concentration of the compounds was 0.39-50 μM. […] […] After this incubation, 0.01 mL of MTT was added to each well and the plates incubated for 2 h at 37° C. The cells were then solubilised by adding 0.1 mL of 10% SDS-50% isobutanol in 0.01 M HCl and the plates then read at 570 nm on a scanning multiwell spectrophotometer (Titertek Multiscan; Beckman Instruments Inc, California). MTT colour formation was directly proportional to the number of viable cells.
as §1, §2

M109 lung carcinoma = test: Inhibition of M109 lung carcinoma growth in vivo; set-up: species or system mouse; settings: 6 mg/kg (MTD), day 12
Method: Inhibition of M109 Lung Cancer Cell Growth by Iron Chelators In Vivo Female CD2F1 mice aged 8-10 weeks old were sc implanted with 1×10^5 M109 cells. The tumour cells were passaged in CD2F1 mice by preparing a brei from the tumour and injecting it sc.^20 Dp44mT was dissolved in 30% (v/v) propylene glycol in saline and injected iv 4 days after tumour engraftment, twice daily for 5 days followed by a “rest period” of 2 days when the animal was not injected. On the twelfth day after tumour implantation, mice were sacrificed using methoxyfluorane and cardiac puncture performed. Blood counts and erythrocyte indices were measured using a Sysmex Blood Counter (Prince of Wales Hospital, Sydney, Australia). Mouse body weight changes during the treatment period were recorded. The tumours were weighed and fixed for histological examination. The experimental groups consisted of eight mice for the control and each treatment (Table 5).
As a relevant positive control, animals were administered Triapine® at its MTD (6 mg/kg). The tumour weight was measured on the twelfth day after the tumour cell implantation.

[3] = system: SK-N-MC neuroepithelioma cells; test: MTT cellular proliferation assay, SK-N-MC; assay type: cell-based, human; settings: Homo sapiens, SK-N-MC; Table 3; 0-25 μM, 72 h, MTT; mean ± SD; read-out: IC50 SK-N-MC neuroepithelioma
Method: […] […] After this incubation, 0.01 mL of MTT was added to each well and the plates incubated for 2 h at 37° C. The cells were then solubilised by adding 0.1 mL of 10% SDS-50% isobutanol in 0.01 M HCl and the plates then read at 570 nm on a scanning multiwell spectrophotometer (Titertek Multiscan; Beckman Instruments Inc, California). MTT colour formation was directly proportional to the number of viable cells.
The effect of the compounds on the proliferation of SK-N-MC neuroepithelioma cells was examined using the MTT assay (described above).
as §1

[4] = Maximum tolerated dose in CD2F1 hybrid mice; assay type: in vivo; settings: female, CD2F1, mouse, in vivo, iv
Method: BALB/c and DBA/2 mice were obtained from Animal Resources Centre (University of New South Wales (UNSW), Sydney, Australia) and crossed to produce CD2F1 animals (all procedures used were approved by the Animal Ethics Committee, UNSW). Groups of eight female CD2F1 mice (8-10 weeks old) were fed and watered ad-libitum, and injected via the tail vein with compounds being studied in 30% propylene glycol in 0.9% sterile saline, twice a day, 6 h apart, 5 days/week for 2 weeks. The maximum tolerated dose (MTD) was defined as the dose at which 30% of a cohort either died or lost weight in excess of 10%.^19

`NC(=S)NN=Cc1ncccc1N` [Triapine, 3-aminopyridine-2-carboxaldehyde thiosemicarbazone] showed a Body weight loss [1] of 5.3 ± 0.4 g, a Haematocrit [1] of 0.28 ± 0.01 and a Haemoglobin [1] of 8.6 ± 0.5 g/dL. For the same compound, the Platelets [1] was 976 ± 171 10^9/L, the RBC [1] was 6.1 ± 0.4 10^12/L and the WBC [1] was 1.4 ± 0.3 10^9/L. The IC50 [2] was 3 ± 1.5 µM, the IC50 (SK-Mel-28 melanoma cells) was 2.6 ± 0.6 µM and the tumour weight (M109 lung carcinoma) was 10 % of the control. For the same compound, the IC50 [3] was 0.26 µM and the MTD at 2 weeks [4] was 6 mg/kg.
